Assay results: patent US6514964B1, “Fused cycloheptane and fused azacycloheptane compounds and their methods of use” (Amgen Inc., priority 1999, dated 2003)

The molecules below were run on human umbilical cord endothelial cells (HUVEC) (assay: HUVEC proliferation assay and/or HUVEC adhesion assay). Conditions: bound stated for the listed compounds.
Format: cell-based
Protocol: HUVEC Proliferation Assay
1. Coat 3 NUNC polystyrene 96 well plate (VWR, 62409-120; lids 62409-118) with vitronectin (purified internally), fibronectin (Collaborative Biomed 40008A) or fibrinogen (Calbiochem 341578) 50 ng/well in 50 μl PBS, 1 hr @ RT.
a. rinse with 5 mls PBS (no Ca, Mg)
3. Rinse vitronectin plates 1× in 200 μl PBS −/− and add 3000 cells per well in 100 ul growth medium (EBM2 (Clonetics, CC-3156)+EGM2 bullet kit (CC-4176)).
4. Incubate 24 hours at 37° C. to allow attachment.
5. Remove growth medium and add 100 μl growth medium+drugs (25 μM and down by five fold steps in DMSO-0.25% final DMSO concentration).
6. Incubate for 3 days changing media (+drugs).
7. Remove non-adherent cells on Friday with Raindance 12 well plate washer.
8. Wash twice with 200 μl PBS (+Mg & Ca).
9. Tap out excess liquid.
10. Freeze @ −70° C. for 30 minutes.
11. Thaw plate and add 150 μl CyQuant fluorescent dye (Molecular Probes C-7026).
12. Read after 4 minutes @ 485λ (excitation), 530λ (emission).
1. Coat 2 NUNC polystyrene 96 well plates (VWR, 62409-120; lids 62409-118) with 50 μl vitronectin (purified internally) at 50 ng/well in PBS (−Mg & Ca), for 1 hour @ 37° C.
2. Rinse with PBS & block with 150 μl PBS/1% BSA (Sigma A8918), 1 hour at @ 37° C.
3. Prepare drug dilutions:
a. 400 fold concentrate in 100% DMSO
b. 0.25% DMSO [assay]final
c. 10 mM & down (25 μMfinal & down)
d. dilute 1 μl of 400 fold conc into 200 μl adhesion media
a. rinse with 5 ml PBS (no Ca, Mg)
6. Rinse blocking buffer from assay plate and add 50 μl of drug dilutions.
7. Resuspend cells in adhesion media, count and add 2e4 cells/well in 50 μl (4e5/ml).
8. Incubate 60 minutes @ 37° C.
9. Remove non-adherent cells with Raindance 12 well plate washer.
10. Wash twice with 200 μl PBS (+Mg & Ca)
11. Tap out excess liquid.
12. Freeze @ −70° C. for 30 minutes to overnite.
13. Thaw plate and add 150 μl CyQuant fluorescent dye (Molecular Probes C-7026).
14. Read after 2-5 minutes @ 485λ (excitation), 530λ (emission).
Adhesion medium: Media 199 (which contains […] and 0.8 mM MgSO4), 0.5% BSA, 10 mM HEPES, 1 mM MgCl2, and 1 mM MnCl2
`O=C(O)CC1CN(CC(=O)NCCCc2ccc3c(n2)NCCC3)CCc2ccccc21` (stereo not drawn) [Example 28, 2-(3-{[N-(3-(1,2,3,4-tetrahydropyridino[2,3-b]pyridin-7-yl)propyl)carbamoyl]methyl}-1H,2H,4H,5H-benzo[d]azepinyl)acetic acid] was tested, and the IC50 was ≤ 30 µM. `O=C(O)CC1CN(C(=O)NCCCc2ccc3c(n2)NCCC3)CCc2ccccc21` (stereo not drawn) [Example 30, 2-{3-(N-(3-(1,2,3,4-tetrahydropyridino[2,3-b]pyridin-7-yl)propyl)carbamoyl)-1H,2H,4H,5H-benzo[d]azepin-1-yl}acetic acid] was tested, and the IC50 was ≤ 30 µM. `O=C(O)CC1CCN(C(=O)NCCCCNc2ccccn2)Cc2ccccc21` (stereo not drawn) [Example 3, 2-(2-(N-(4-(2-pyridylamino)butyl)carbamoyl)-1H,3H,4H,5H-benzo[e]azapin-5-yl)acetic acid] was tested, and the IC50 was ≤ 30 µM. For `O=C(O)C[C@H]1CCN(C(=O)NCCCc2ccc3c(n2)NCCC3)Cc2ccccc21` [Example 52, 2-((5R)-2-(N-(3-(1,2,3,4-tetrahydropyridino(2,3-b)pyridin-7-yl)prop-1-yl)carbamoyl)-1H,3H,4H,5H-benzo[e]azapin-5-yl)acetic acid], the IC50 was ≤ 30 µM. `O=C(O)CC1CCN(C(=O)NCCCCNc2ncccn2)Cc2ccccc21` (stereo not drawn) [Example 10, 2-(2-(N-(4-(pyrimidin-2-ylamino)but-1-yl)carbamoyl)-1H,3H,4H,5H-benzo[e]azapin-5-yl)acetic acid] was tested, and the IC50 was ≤ 30 µM. In the case of `O=C(O)CCC1CCN(S(=O)(=O)NCCc2ccc3c(n2)NCCC3)Cc2ccccc21` (stereo not drawn) [Example 47], the IC50 is reported as ≤ 30 µM. `Cc1cccc(NCCCCNC(=O)N2CCC(CC(=O)O)c3ccccc3C2)n1` (stereo not drawn) [Example 9, 2-(2-(N-(4-((6-methyl-2-pyridyl)amino)but-1-yl)carbamoyl)-1H,3H,4H,5H-benzo[e]azapin-5-yl)acetic acid] was tested, and the IC50 was ≤ 30 µM. For `O=C(O)CC1CCN(C(=O)NCCCNc2ccccn2)Cc2ccccc21` (stereo not drawn) [Example 2, 2-(2-(N-(3-(2-pyridylamino)propyl)carbamoyl)-1H,3H,4H,5H-benzo[e]azain-5-yl)acetic acid], the IC50 was ≤ 30 µM. `O=C(O)CC1CCN(S(=O)(=O)NCCc2ccc3c(n2)NCCC3)Cc2ccccc21` (stereo not drawn) [Example 45, 2-(2-(((2-(1,2,3,4-tetrahydropyridino(2,3-b)pyridin-7-yl)ethyl)amino)sulfonyl)-1H,3H,4H,5H-benzo[e]azain-5-yl)acetic acid] was tested, and the IC50 was ≤ 30 µM. In the case of `O=C(O)CC1Cn2cc(C(=O)NCCc3ccc4c(n3)NCCC4)nc2Cc2ccccc21` (stereo not drawn) [Example 63, 2-{2-[N-(2-(1,2,3,4-tetrahydropyridino [2,3-b]pyridin-7-yl)ethyl)carbamoyl]-4H,5H,10H-benzo[d]imidazolo[1,2-a]azepin-5-yl}acetic acid], the IC50 is reported as ≤ 30 µM. With `O=C(O)CC1CCN(C(=O)CCCc2ccc3c(n2)NCCC3)Cc2ccccc21` (stereo not drawn) [Example 56, 2-[2-(4-(1,2,3,4-tetrahydropyridino[2,3-b]pyridin-7-yl)butanoyl)-1H,3H,4H,5H-benzo[e]azepin-5-yl]acetic acid] the IC50 was ≤ 30 µM. In the case of `CC(C)N(CCc1ccc2c(n1)NCCC2)C(=O)c1cn2c(n1)Cc1ccccc1C(CC(=O)O)C2` (stereo not drawn) [Example 64, 2-{2-[N-(methylethyl)-N-(2-(1,2,3,4-tetrahydropyridino[2,3-b]pyridin-7-yl)ethyl)carbamoyl]-4H,5H,10H-benzo[d]imidazolo[1,2-a]azepin-5-yl}acetic acid], the IC50 is reported as ≤ 30 µM. `N#C/N=C(\NCCCc1ccc2c(n1)NCCC2)N1CCC(CC(=O)O)c2ccccc2C1` (stereo not drawn) [Example 42] was tested, and the IC50 was ≤ 30 µM. With `O=C(O)CC1CN(C(=O)NCCc2ccc3c(n2)NCCC3)CCc2ccccc21` (stereo not drawn) [2-(3-(N-(2-(1,2,3,4-tetrahydropyridino[2,3-b]pyridin-7-yl)ethyl)carbamoyl)-1H, 2H, 4H, 5H-benzo[d]azepin-1-yl}acetic acid] the IC50 was ≤ 30 µM. For `O=C(O)CC1CCN(C(=O)NCCCCCNc2ccccn2)Cc2ccccc21` (stereo not drawn) [Example 4, 2-(2-(N-(5-(2-pyridylamino)pent-1-yl)carbamoyl)-1H,3H,4H,5H-benzo[e]azapin-5-yl)acetic acid], the IC50 was ≤ 30 µM. With `CN(CCCNc1ccccn1)C(=O)c1cn2c(n1)Cc1ccccc1C(CC(=O)O)C2` (stereo not drawn) [Example 67, 2-(2-{N-methyl-N-[3-(2-pyridylamino)propyl]carbamoyl}-4H,5H,10H-benzo[d]imidazolo[1,2-a]azepin-5-yl)acetic acid] the IC50 was ≤ 30 µM. In the case of `O=C(O)CC1CCN(C(=O)NCCCc2ccc3c(n2)NCCC3)Cc2ccccc21` (stereo not drawn) [Example 13, 2-(2-(N-(3-(1,2,3,4-tetrahydropyridino(2,3-b)pyridin-7-yl)prop-1-yl)carbamoyl)-1H,3H,4H,5H-benzo[e]azapin-5-yl)acetic acid], the IC50 is reported as ≤ 30 µM. For `CS(=O)(=O)Nc1ccc2c(c1)CN(C(=O)NCCCc1ccc3c(n1)NCCC3)CCC2CC(=O)O` (stereo not drawn) [Example 81, 2-{8-[(Methylsulfonyl)amino]-2-[N-(3-(1,2,3,4-tetrahydropyridino[2,3-b]pyridin-7-yl)Propyl)carbamoyl]-1H,3H,4H,5H-benzo[e]azepin-5-yl}acetic acid], the IC50 was ≤ 30 µM. `O=C(O)CC1CCN(C(=O)NCCCc2ccc3c(n2)NCCC3)Cc2cc(F)ccc21` (stereo not drawn) [Example 24, 2-(8-fluoro-2-(N-(3-(1,2,3,4-tetrahydropyridino [2,3,b]pyridin-7-yl)propyl)carbamoyl)-1H,3H,4H,5H-benzo[e]azaperhydroepin-5-yl)acetic acid] was tested, and the IC50 was ≤ 30 µM. With `O=CNc1ccc2c(c1)CN(C(=O)NCCCc1ccc3c(n1)NCCC3)CCC2CC(=O)O` (stereo not drawn) [Example 83, 2-{8-Carbonylamino-2-[N-(3-(1,2,3,4-tetrahydropyridino[2,3-b]pyridin-7-yl)propyl)carbamoyl]-1H,3H,4H,5H-benzo[e]azepin-5-yl}acetic acid] the IC50 was ≤ 30 µM. `O=C(O)CC1CCN(C(=O)N2CCC(CNc3ccccn3)CC2)Cc2ccccc21` (stereo not drawn) [Example 7, 2-(2-(((4-(2-pyridylamino)methyl)piperid-1-yl)carbonyl)-1H,3H,4H,5H-benzo[e]azapin-5-yl)acetic acid] was tested, and the IC50 was ≤ 30 µM. For `O=C(O)CC1CCN(C(=O)NCCCc2ccc3c(n2)NCCC3)Cc2cc(Cl)ccc21` (stereo not drawn) [Example 78, 2-{8-Chloro-2-[N-(3-(1,2,3,4-tetrahydropyridino[2,3-b]pyridin-7-yl)propyl)carbamoyl]-1H,3H,4H,5H-benzo[e]azepin-5-yl}acetic acid], the IC50 was ≤ 30 µM. In the case of `O=C(O)CC1CCN(S(=O)(=O)NCCCNc2ccccn2)Cc2ccccc21` (stereo not drawn) [Example 15, 2-(2-(((3-(2-pyridylamino)prop-1-yl)amino)sulfonyl)-1H,3H,4H,5H-benzo[e]azapin-5-yl)acetic acid], the IC50 is reported as ≤ 30 µM. `O=C(O)CC1CCN(C(=O)Nc2cccc(CNc3ccccn3)c2)Cc2ccccc21` (stereo not drawn) [Example 8, 2-(2-(N-(3-(2-pyridylamino)methylphenyl)carbamoyl)-1H,3H,4H,5H-benzo[e]azapin-5-yl)acetic acid] was tested, and the IC50 was ≤ 30 µM. For `COc1ccc2c(c1)CN(C(=O)NCCCc1ccc3c(n1)NCCC3)CCC2CC(=O)O` (stereo not drawn) [Example 71, 2-(8-methoxy-2-(N-(3-(1,2,3,4-tetrahydropyridino[2,3,b]pyridin-7-yl)propyl)carbamoyl)-1H,3H,4H,5H-benzo[e]azaperhydroepin-5-yl) acetic acid], the IC50 was ≤ 30 µM. `Cc1ccnc(NCCCCNC(=O)N2CCC(CC(=O)O)c3ccccc3C2)c1` (stereo not drawn) [2-[2-(N-{4-[(4-methyl-2-pyridyl)amino]butyl}carbamoyl)-1H, 3H, 4H, 5H-benzo[e]azepin-5-yl]acetic acid] was tested, and the IC50 was ≤ 30 µM. For `O=C(O)CC1CCN(C(=O)NCCCCNC(=O)NCc2ccccc2)Cc2ccccc21` (stereo not drawn) [2-{2-[N-(4-{[benzylamino]carbonylamino}butyl)carbamoyl]-1H, 3H, 4H, 5H-benzo[e]azepin-5-yl}acetic acid], the IC50 was ≤ 30 µM. With `O=C(O)CC1CN(C(=O)CCCCCCNc2ccccn2)CCc2ccccc21` (stereo not drawn) [Example 32, 2-{3-(7-(2-pyridylamino)heptanoyl)-1H,2H,4H,5H-benzo[d]azepin-1-yl}acetic acid] the IC50 was ≤ 30 µM. For `O=C(O)CC1CCN(C(=O)NCCCc2ccc3c(n2)NCCC3)Cc2cc(-c3ccccc3)ccc21` (stereo not drawn) [Example 73, 2-(8-phenyl-2-(N-(3-(1,2,3,4-tetrahydropyridino[2,3,b]pyridin-7-yl)propyl)carbamoyl)-1H,3H,4H,5H-benzo[e]azaperhydroepin-5-yl) acetic acid], the IC50 was ≤ 30 µM. With `CC(C)N(Cc1cnc2c(c1)CCCN2)C(=O)c1cn2c(n1)Cc1ccccc1C(CC(=O)O)C2` (stereo not drawn) [Example 65, 2-{2-[N-(methylethyl)-N-(1,2,3,4tetrahydropyridino[2,3-b]pyridine-6-ylmethyl)carbamoyl]-4H,5H,10H-benzo[d]imidazolo[1,2-a]azepin-5-yl}acetic acid] the IC50 was ≤ 30 µM.
